Reference: patent publication US20040209318A1, “Reagents and methods for the detection and quantification of vancomycin in bilogical fluids” (priority 1995, published 2004)

Legend:
[1] = system: sheep polyclonal antibodies against vancomycin; assay: commercially available Abbott Vancomycin assay (TDX/TDXFLX FPIA), cross reactivity; type: binding; details: for COMMERCIAL ASSAY VALUES / COMMERCIAL ASSAY cross reactivity: 0 ug/mL vancomycin
Excerpt: Commercially available fluorescent polarization assays (FPIA) for vancomycin are available. For instance, commercially available assays (Abbott […]® assays, (hereinafter referred to as the “commercially available Abbott Vancomycin assays(s)”)) include reagents for the quantitative measurement of vancomycin in serum or plasma samples. These assays use a vancomycin derivative labeled with a dichlorotriazinylaminofluorescein (DTAF) (hereinafter referred to as the “commercially available tracer”), and sheep polyclonal antibodies against vancomycin (hereinafter referred to as “commercially available antibodies”). […] In contrast, the commercially available vancomycin assay has elevated levels of CDP-I cross reactivity ranging from 39.58% to 65% with or without vancomycin present. […] (Refer to Table 3 for CDP-I cross-reactivity data.)

[2] = system: monoclonal antibody #15-109-592; assay: Fluorescence polarization immunoassay of the present invention, cross reactivity; type: binding, mouse; details: for PRESENT INVENTION VALUES / PRESENT INVENTION cross reactivity: 0 ug/mL vancomycin
[3] = target: anti-vancomycin Fab fragment; assay: BIAcore solution competition, equilibrium dissociation constant; type: binding, mouse; details: in solution, 20 nM Fab fragment; read-out: Equilibrium Dissociation Constant (KD)
Description: Biosensor surfaces were regenerated after each injection with successive 1 minute pulses of 6 M, 6M, and 1.5 M guanidine hydrochloride. Initial rates of binding of anti-vancomycin Fab fragment to the biosensor surface were measured over a 15 second window beginning 20 seconds postinjection. Data was evaluated by non-linear regression analysis using the solution affinity model built into BIAevaluation 3.0 software (BIAcore, Inc).
The binding affinities of several vancomycin analogs and tracers for anti-vancomycin Fab fragment were determined from solution competition experiments carried out on a BIAcore 2000. Initially, known concentrations of anti-vancomycin Fab fragment (0-22 nM) were injected over the aminoalkyl vancomycin biosensor surface. The initial rate of binding for each anti-vancomycin Fab fragment concentration was obtained by averaging the observed binding rate over a […] window beginning 20 seconds post injection. Data from the first 20 seconds of each sensorgram were omitted due to sample dispersion effects at the start of injections. A plot of initial binding rate versus concentration of anti-vancomycin Fab fragment was fit using a 4-parameter logistic (general model in BIAevaluation 3.0) providing a standard curve. […] A fixed concentration of anti-vancomycin Fab fragment (20 nM) was then mixed with twelve concentrations of each vancomycin analog or tracer and allowed to reach equilibrium. The equilibrium mixtures were individually injected over the aminoalkyl vancomycin biosensor surface, and the concentration of free anti-vancomycin Fab fragment remaining was quantitated by determination of the initial rate of binding to the biosensor surface as described above. A plot of free anti-vancomycin Fab fragment versus total concentration of added analog or tracer provides a competition curve. […] The data points represent the experimentally determined concentrations of free anti-vancomycin Fab fragment in equilibrium solutions at a given concentration of soluble analog or tracer. The curves represent the best nonlinear fit of the data using equation 1 (solution affinity model in BIAevaluation software) below: [formula]
where Fabτ is the concentration of free anti-vancomycin Fab fragment in equilibrium solutions, Fabτ is the total concentration of anti-vancomycin Fab fragment in solution (20 nM), A is the total concentration of added vancomycin analog or tracer, and KD is the equilibrium dissociation constant for the binding of the vancomycin analog or tracer to anti-vancomycin Fab fragment in solution.

[4] = 40 ug/mL vancomycin, 1 ug/mL CDP-I
[5] = 40 ug/mL vancomycin, 10 ug/mL CDP-I
[6] = 40 ug/mL vancomycin, 50 ug/mL CDP-I
[7] = 40 ug/mL vancomycin, 100 ug/mL CDP-I
[8] = 80 ug/mL vancomycin, 1 ug/mL CDP-I
[9] = 80 ug/mL vancomycin, 10 ug/mL CDP-I
[10] = 80 ug/mL vancomycin, 50 ug/mL CDP-I
[11] = 80 ug/mL vancomycin, 100 ug/mL CDP-I

CNC(CC(C)C)C(=O)NC1C(=O)NC(C(=O)O)CC(=O)NC2C(=O)NC3C(=O)NC(C(=O)NC(C(=O)O)c4cc(O)cc(O)c4-c4cc3ccc4O)C(O)c3ccc(c(Cl)c3)Oc3cc2cc(c3OC2OC(CO)C(O)C(O)C2OC2CC(C)(N)C(O)C(C)O2)Oc2ccc(cc2Cl)C1O (stereo not shown) [CDP-I, Crystalline Degradation Product I]
COMMERCIAL ASSAY VALUES ([1]; CDP-I 1 ug/mL): 0.92 µg/mL | COMMERCIAL ASSAY cross reactivity ([1]; CDP-I 1 ug/mL): N.D. (Less than sensitivity at 2.00 ug/mL vancomycin) | COMMERCIAL ASSAY VALUES ([1]; CDP-I 2.5 ug/mL): 1.61 µg/mL | COMMERCIAL ASSAY cross reactivity ([1]; CDP-I 2.5 ug/mL): N.D. (Less than sensitivity at 2.00 ug/mL vancomycin) | COMMERCIAL ASSAY VALUES ([1]; CDP-I 5 ug/mL): 3.25 µg/mL | COMMERCIAL ASSAY cross reactivity ([1]; CDP-I 5 ug/mL): 65% | COMMERCIAL ASSAY VALUES ([1]; CDP-I 7 ug/mL): 4.54 µg/mL | COMMERCIAL ASSAY cross reactivity ([1]; CDP-I 7 ug/mL): 64.86% | COMMERCIAL ASSAY VALUES ([1]; CDP-I 10 ug/mL): 6.42 µg/mL | COMMERCIAL ASSAY cross reactivity ([1]; CDP-I 10 ug/mL): 64.2% | COMMERCIAL ASSAY VALUES ([1]; CDP-I 15 ug/mL): 8.87 µg/mL | COMMERCIAL ASSAY cross reactivity ([1]; CDP-I 15 ug/mL): 59.13% | COMMERCIAL ASSAY VALUES ([1]; CDP-I 20 ug/mL): 11.04 µg/mL | COMMERCIAL ASSAY cross reactivity ([1]; CDP-I 20 ug/mL): 55.20% | COMMERCIAL ASSAY VALUES ([1]; CDP-I 25 ug/mL): 12.94 µg/mL | COMMERCIAL ASSAY cross reactivity ([1]; CDP-I 25 ug/mL): 51.76% | COMMERCIAL ASSAY VALUES ([1]; CDP-I 50 ug/mL): 19.79 µg/mL | COMMERCIAL ASSAY cross reactivity ([1]; CDP-I 50 ug/mL): 39.58% | COMMERCIAL ASSAY [1, 4]: 39.99 µg/mL | COMMERCIAL ASSAY % C.R. [1, 4]: N.D. (Less than sensitivity at 2.00 ug/mL vancomycin) | COMMERCIAL ASSAY Diff/Sample-control [1, 4]: 1.05 µg/mL | COMMERCIAL ASSAY [1, 5]: 43.74 µg/mL | COMMERCIAL ASSAY % C.R. [1, 5]: 48% | COMMERCIAL ASSAY Diff/Sample-control [1, 5]: 4.80 µg/mL | COMMERCIAL ASSAY [1, 6]: 55.49 µg/mL | COMMERCIAL ASSAY % C.R. [1, 6]: 36.66% | COMMERCIAL ASSAY Diff/Sample-control [1, 6]: 18.33 µg/mL | COMMERCIAL ASSAY [1, 7]: 67.35 µg/mL | COMMERCIAL ASSAY % C.R. [1, 7]: 30.85% | COMMERCIAL ASSAY Diff/Sample-control [1, 7]: 30.85 µg/mL | COMMERCIAL ASSAY [1, 8]: 78.85 µg/mL | COMMERCIAL ASSAY % C.R. [1, 8]: N.D. (Less than sensitivity at 2.00 ug/mL vancomycin) | COMMERCIAL ASSAY Diff/Sample-control [1, 8]: -0.68 µg/mL | COMMERCIAL ASSAY [1, 9]: 83.34 µg/mL | COMMERCIAL ASSAY % C.R. [1, 9]: 38.1% | COMMERCIAL ASSAY Diff/Sample-control [1, 9]: 3.81 µg/mL | COMMERCIAL ASSAY % C.R. [1, 10]: HI ((>100)) | COMMERCIAL ASSAY Diff/Sample-control [1, 10]: HI ((>100)) | COMMERCIAL ASSAY ug/mL [1, 10]: HI ((>100)) | COMMERCIAL ASSAY % C.R. [1, 11]: HI ((>100)) | COMMERCIAL ASSAY Diff/Sample-control [1, 11]: HI ((>100)) | COMMERCIAL ASSAY ug/mL [1, 11]: HI ((>100)) | PRESENT INVENTION VALUES ([2]; CDP-I 1 ug/mL): 0.22 µg/mL | PRESENT INVENTION cross reactivity ([2]; CDP-I 1 ug/mL): N.D. (Less than sensitivity at 2.00 ug/mL vancomycin) | PRESENT INVENTION VALUES ([2]; CDP-I 2.5 ug/mL): 0.15 µg/mL | PRESENT INVENTION cross reactivity ([2]; CDP-I 2.5 ug/mL): N.D. (Less than sensitivity at 2.00 ug/mL vancomycin) | PRESENT INVENTION VALUES ([2]; CDP-I 5 ug/mL): 0.26 µg/mL | PRESENT INVENTION cross reactivity ([2]; CDP-I 5 ug/mL): N.D. (Less than sensitivity at 2.00 ug/mL vancomycin) | PRESENT INVENTION VALUES ([2]; CDP-I 7 ug/mL): LOW | PRESENT INVENTION cross reactivity ([2]; CDP-I 7 ug/mL): N.D. (Less than sensitivity at 2.00 ug/mL vancomycin) | PRESENT INVENTION VALUES ([2]; CDP-I 10 ug/mL): 0.13 µg/mL | PRESENT INVENTION cross reactivity ([2]; CDP-I 10 ug/mL): N.D. (Less than sensitivity at 2.00 ug/mL vancomycin) | PRESENT INVENTION VALUES ([2]; CDP-I 15 ug/mL): LOW | PRESENT INVENTION cross reactivity ([2]; CDP-I 15 ug/mL): N.D. (Less than sensitivity at 2.00 ug/mL vancomycin) | PRESENT INVENTION VALUES ([2]; CDP-I 20 ug/mL): 0.46 µg/mL | PRESENT INVENTION cross reactivity ([2]; CDP-I 20 ug/mL): N.D. (Less than sensitivity at 2.00 ug/mL vancomycin) | PRESENT INVENTION VALUES ([2]; CDP-I 25 ug/mL): 0.18 µg/mL | PRESENT INVENTION cross reactivity ([2]; CDP-I 25 ug/mL): N.D. (Less than sensitivity at 2.00 ug/mL vancomycin) | PRESENT INVENTION VALUES ([2]; CDP-I 50 ug/mL): 0.67 µg/mL | PRESENT INVENTION cross reactivity ([2]; CDP-I 50 ug/mL): N.D. (Less than sensitivity at 2.00 ug/mL vancomycin) | PRESENT INVENTION [2, 4]: 40.86 µg/mL | PRESENT INVENTION % C.R. [2, 4]: N.D. (Less than sensitivity at 2.00 ug/mL vancomycin) | PRESENT INVENTION Diff/Sample-Control [2, 4]: -0.20 µg/mL | PRESENT INVENTION [2, 5]: 40.50 µg/mL | PRESENT INVENTION % C.R. [2, 5]: N.D. (Less than sensitivity at 2.00 ug/mL vancomycin) | PRESENT INVENTION Diff/Sample-Control [2, 5]: -0.54 µg/mL | PRESENT INVENTION [2, 6]: 39.13 µg/mL | PRESENT INVENTION % C.R. [2, 6]: N.D. (Less than sensitivity at 2.00 ug/mL vancomycin) | PRESENT INVENTION Diff/Sample-Control [2, 6]: -0.14 µg/mL | PRESENT INVENTION [2, 7]: 37.22 µg/mL | PRESENT INVENTION % C.R. [2, 7]: N.D. (Less than sensitivity at 2.00 ug/mL vancomycin) | PRESENT INVENTION Diff/Sample-Control [2, 7]: 0.24 µg/mL | PRESENT INVENTION % C.R. [2, 8]: N.D. (Less than sensitivity at 2.00 ug/mL vancomycin) | PRESENT INVENTION Diff/Sample-Control [2, 8]: -0.64 µg/mL | PRESENT INVENTION [2, 9]: 79.49 µg/mL | PRESENT INVENTION % C.R. [2, 9]: N.D. (Less than sensitivity at 2.00 ug/mL vancomycin) | PRESENT INVENTION Diff/Sample-Control [2, 9]: -0.50 µg/mL | PRESENT INVENTION [2, 10]: 74.41 µg/mL | PRESENT INVENTION % C.R. [2, 10]: N.D. (Less than sensitivity at 2.00 ug/mL vancomycin) | PRESENT INVENTION Diff/Sample-Control [2, 10]: -0.83 µg/mL | PRESENT INVENTION [2, 11]: 71.22 µg/mL | PRESENT INVENTION % C.R. [2, 11]: N.D. (Less than sensitivity at 2.00 ug/mL vancomycin) | PRESENT INVENTION Diff/Sample-Control [2, 11]: -0.26 µg/mL | cross-reactivity ([2]; vancomycin 0, 40, 80 μg/mL, cross reactants 0, 1, 10, 50, 100 μg/mL): less than 2%

CN[C@H](CC(C)C)C(=O)N[C@H]1C(=O)N[C@@H](CC(N)=O)C(=O)N[C@H]2C(=O)N[C@H]3C(=O)N[C@H](C(=O)N[C@H](C(=O)O)c4cc(O)cc(O)c4-c4cc3ccc4O)[C@H](O)c3ccc(c(Cl)c3)Oc3cc2cc(c3O[C@@H]2O[C@H](CO)[C@@H](O)[C@H](O)[C@H]2O)Oc2ccc(cc2Cl)[C@H]1O [compound 5, Desvancosaminylvancomycin]
Kd [3]: 587 ± 27 nM
